The values that follow come from patent US9463192B2, “Trk-inhibiting compound” (ONO PHARMACEUTICAL CO., LTD., priority 2013, dated 2016).

Assay [1] relates to NGF-induced vascular hyper permeability. Kind of assay: Inhibition of rat NGF-induced vascular hyper permeability. In kind it is in vivo. The settings on record: po, 1 mg/kg orally, 14 h after administration, read-out: Inhibition rate of vascular hyper permeability (%) (time after administration (h)).
The next assay addresses human TrkA (Homo sapiens (Human), UniProt P04629). Kind of assay: Measurement of TrkA kinase-inhibiting activity using human TrkA-expressing cells. In kind it is cell-based. The settings on record: CHO-K1 cells expressing human TrkA and NFAT-bla; NGF 50 ng/ml; TR-FRET reporter.
Assay [2] relates to sodium monoiodoacetate-induced model rats. Kind of assay: Analgesic effect on sodium monoiodoacetate-induced model rats. It counts as in vivo, rat.

Structures are written as SMILES.

human TrkA, sequence (P04629 33-796): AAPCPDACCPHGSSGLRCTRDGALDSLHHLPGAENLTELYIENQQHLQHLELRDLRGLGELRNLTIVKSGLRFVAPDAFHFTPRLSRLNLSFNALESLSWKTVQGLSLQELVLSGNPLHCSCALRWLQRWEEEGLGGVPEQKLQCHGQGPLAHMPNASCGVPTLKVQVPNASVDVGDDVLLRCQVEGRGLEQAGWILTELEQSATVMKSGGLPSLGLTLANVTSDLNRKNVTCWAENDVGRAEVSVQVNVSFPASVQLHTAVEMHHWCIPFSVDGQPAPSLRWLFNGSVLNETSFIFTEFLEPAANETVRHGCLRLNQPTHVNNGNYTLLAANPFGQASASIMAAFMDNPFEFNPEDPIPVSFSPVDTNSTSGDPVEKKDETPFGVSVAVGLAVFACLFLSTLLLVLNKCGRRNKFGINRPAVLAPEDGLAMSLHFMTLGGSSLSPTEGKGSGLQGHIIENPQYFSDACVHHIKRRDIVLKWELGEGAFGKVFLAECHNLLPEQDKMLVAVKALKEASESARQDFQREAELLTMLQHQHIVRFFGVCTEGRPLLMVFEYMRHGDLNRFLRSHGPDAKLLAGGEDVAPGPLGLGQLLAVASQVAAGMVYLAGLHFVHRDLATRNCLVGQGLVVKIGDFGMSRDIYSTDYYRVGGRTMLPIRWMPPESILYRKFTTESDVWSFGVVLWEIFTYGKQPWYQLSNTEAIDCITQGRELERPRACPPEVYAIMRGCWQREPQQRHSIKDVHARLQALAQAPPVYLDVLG

For `COc1ccc2ncc(-c3ccc(Oc4ncc(NC(=O)Nc5cc(C(F)(F)F)ccc5-n5cccn5)cn4)cc3)n2n1` [Example 22-9, 1-(2-(1H-pyrazol-1-yl)-5-(trifluoromethyl)phenyl)-3-(2-(4-(6-methoxyimidazo[1,2-b]pyridazin-3-yl)phenoxy)pyrimidin-5-yl)urea], the inhibition in vivo at 1 mg/kg in assay [1] turned out to be 100%. The compound also came in with a 50% inhibitory concentration (IC50) on human TrkA of 0.001 µM. As to `CCOc1ccc2ncc(-c3ccc(Oc4ncc(NC(=O)Nc5cc(C(F)(F)F)ccc5-c5cccnc5)cn4)cc3)n2n1` [Example 22-34, 1-{2-[4-(6-ethoxyimidazo[1,2-b]pyridazin-3-yl)phenoxy]-5-pyrimidinyl}-3-[2-(3-pyridinyl)-5-(trifluoromethyl)phenyl]urea], the inhibition in vivo at 1 mg/kg in assay [1] was 91%. Also, the IC50 against human TrkA came out at 0.001 µM.

In the case of `CN1CC[C@]23c4c5ccc(O)c4O[C@H]2[C@@H](O)C=C[C@H]3[C@H]1C5` [Morphine], in assay [2] (Rattus norvegicus, sc, 1 h, read-out: Percent improvement (%)), the inhibition in vivo at 3 mg/kg came to 54%. Turning to `COc1cccc(C2(O)CCCCC2CN(C)C)c1` (stereo not drawn) [Tramadol], the “Percent improvement (%)” value in assay [2] (MIA-induced model rats, day 24, tramadol 10 mg/kg subcutaneously 1 hour before measurement) worked out at 43%.
